Consider 4 compounds from PMC4761914, “Improvement of pyrazolo[3,4-d]pyrimidines pharmacokinetic properties: nanosystem approaches for drug delivery” (Scientific Reports, 2016).

Data set [1] has as its system SH-SY5Y NB cells. In words: Antiproliferative activity / cytotoxicity, Trypan blue assay. The settings on record: Homo sapiens. In kind it is cell-based. On the procedure:
In vitro experiments were carried out using the human NB cell line SH-SY5Y. Cells were purchased from American Type Culture Collection (ATCC, Manassas, VA, USA) and were cultured in DMEM/F12 1:1 medium supplemented with 10% FBS, 2 mM L-glutamine and 10000 units/mL Penicillin/Streptomycin at 37 °C in 5% CO2 atmosphere. In order to determine the antiproliferative effect of drugs (1–4) and nanosystems, SH-SY5Y cells were seeded at 10^5 cells/well density and treated with albumin (PBS solution, pH 7.4) or empty liposomes (0.9% NaCl solution, pH 7.4), compounds encapsulated with albumin (PBS solution, pH 7.4) or liposomes LP-1, LP-3 and LP-4 (0.9% NaCl solution, pH 7.4) and free compounds 1, 3 and 4 (DMSO solution) at increasing concentrations (0.1 μM, 1.0 μM, 10 μM and 50 μM). IC50 determination for LP-2 and compound 2 was performed testing the following concentrations as well: 0.01 μM, 0.05 μM, 0.5 μM and 5 μM. The cultures were maintained at 37 °C in 5% v/v CO2 for 24, 48 and 72 h. Cell number and viability were evaluated using the Bürker chamber, after treatment with Trypan Blue. IC50 was calculated by GraphPad Prism 6.0 software using the best fitting sigmoid curve.

For data set [2] the following is noted: H2O, 20 °C, 24 hrs; cited from earlier work.
Data set [3] in a line: Entrapment efficiency by HPLC-UV-MS after disruption of nanoparticles. It counts as physicochemical. To be noted: compound encapsulated in albumin nanoparticles. How it is done:
The albumin nanoparticles were prepared by mixing 100 μL of compound solution in EtOH (1 mg/mL) with 900 μL of HSA solution in PBS (pH 7.4, 25 mM) (5 mg/mL)[52]. Cysteine was added up to a final concentration of 5 mg/mL, and the resulting solution was kept at 37 °C, for 45 min. The excess of cysteine was eliminated by dialysis using a cellulose membrane (capacity 60 mL/ft, cut-off 14 kDa, diameter 16 mm, width 25mm). D,L-glyceraldehyde was added to this solution, to a final concentration of 5 μM[53]. The sample was then filtered through a nylon syringe filter with pores of 0.2 μm (Acrodisc 25 mm Syringe Filter) to obtain a sterile solution of the drug-albumin nanoparticles. The concentration of the compound in the final sample was determined by HPLC-UV-MS (HPLC-UV-MS method in the supporting material), after denaturation of the protein by acetonitrile and centrifugation (4500 rpm, 15 min, 4 °C).
The method developed by A.D. Bangham, namely thin layer evaporation, was used for the preparation of LP-1, LP-2, LP-3 and LP-4. Lipids DPPC, Chol and MPEG-2000-DPPE Na (molar ratio 20:10:1) were dissolved in a mixture of CHCl3:MeOH = 3:1 (3 mL, round-bottomed flask). A 1 mM solution of each compound (1, 2, 3, 4) in CHCl3:MeOH = 3:1 was prepared. […] The drug concentration was determined after disruption of liposomes by treatment with ethanol at 40 °C (1:1 = v/v). The compound was extracted and quantified by HPLC-UV-MS (HPLC-UV-MS method in the supporting material). […]
E.E.%c NDd NDd NDd NDd NDd NDd NDd NDd NDd NDd NDd aCalculated on the basis of the total amount of compound dissolved in the organic solvent; bat 37 °C; c at 45°C. dND: compound not detected after filtration 0.2 µm syringe filter. […]
The percentage of entrapment efficacy was calculated with the following equation: […]
where, Fi is the concentration of compound determined in the nano-preparation (evaluated by HPLC-UV-MS, after disruption of nanoparticles) and Ft is the theoretical final concentration (Calculated on the basis of the total amount of compound dissolved in the organic solvent). […]

Details of data set [4]: method as in PMID 25469771, PMID 21050441, PMID 21856155. To be noted: percentage of unmodified drug, human liver microsomes, 37 °C, 60 min; cited from earlier work.
On the set-up of data set [5]: method as in PMID 25469771, PMID 21050441, PMID 21856155. The settings on record: cited from earlier work; for PAMPA: pH 7.4, 5 hours, room temperature; for MR (Membrane Retention): percentage of compound unable to reach the acceptor compartment.
The target of data set [6] is Src. Also noted: method as in PMID 25469771, PMID 21050441, PMID 21856155. The settings on record: cited from earlier work.

Each structure is given as a SMILES string. Where two headings read alike, the source gives them in different places.

On to `CSc1nc(NCc2ccccc2)c2cnn(CC(Cl)c3ccccc3)c2n1` (stereo not shown) [Compound 1], for which the IC50 in data set [1] (24 h, read-out: IC50 24 h) was determined as 21.8 ± 1.7 µM; in data set [1] (48 h, read-out: IC50 48 h), 16.5 ± 1.67 µM; in data set [1] (72 h, read-out: IC50 72 h) it was 13.5 ± 2 µM. Further, the “Aqueous Solubility” value in data set [2] is reported as 0,21 μg/mL. In addition, the drug loading result in data set [3] is “around 6%”. Also, in data set [4], the “Metabolic Stability” value is recorded as 95.8%. Also, in data set [5], the PAMPA is 3.98 10^−6 cm^2/sec. The “MR (Membrane Retention)” value in data set [5] was 46.8%.

For the compound `ClC(Cn1ncc2c(Nc3cccc(Br)c3)nc(SCCN3CCOCC3)nc21)c1ccccc1` (stereo not shown) [Compound 2], the IC50 in data set [1] (24 h, read-out: IC50 24 h) is 12.6 ± 1.6 µM; in data set [1] (48 h, read-out: IC50 48 h) it was 2.66 ± 0.015 µM; in data set [1] (72 h, read-out: IC50 72 h) it was 2.28 ± 0.29 µM. For the same compound, in data set [6], the Ki was 0.13 µM. The compound further returned a drug loading in data set [3] of 50%. The “Metabolic Stability” value in data set [4] was 96.0%.

`CC(Cn1ncc2c(Nc3cccc(Cl)c3)nc(SCCN3CCOCC3)nc21)c1ccccc1` (stereo not shown) [Compound 3]: the IC50 stood at 3.04 ± 0.09 µM in data set [1] (24 h, read-out: IC50 24 h); 2.65 ± 0.08 µM in data set [1] (48 h, read-out: IC50 48 h); 1.54 ± 1.07 µM in data set [1] (72 h, read-out: IC50 72 h). The “Aqueous Solubility” value in data set [2] is recorded as 0,22 μg/mL. Also, the Ki in data set [6] was 0.4 µM. The “Metabolic Stability” value in data set [4] is 97.9%. For the same compound, the PAMPA in data set [5] is recorded as 5.51 10^−6 cm^2/sec. Besides, the “MR (Membrane Retention)” value in data set [5] is on record as 48.9%.

Turning to `CC(C)Sc1nc(Nc2cccc(O)c2)c2cnn(CC(Cl)c3ccccc3)c2n1` (stereo not shown) [Compound 4], the IC50 in data set [1] (24 h, read-out: IC50 24 h) was found to be 13.6 ± 0.94 µM; in data set [1] (48 h, read-out: IC50 48 h), 10.1 ± 0.5 µM; in data set [1] (72 h, read-out: IC50 72 h), 8.63 ± 0.75 µM. Besides, the “Aqueous Solubility” value in data set [2] is on record as 0,90 μg/mL. The Ki in data set [6] is 0.01 µM. This compound yielded a drug loading in data set [3] of 50%. In addition, the “Metabolic Stability” value in data set [4] is on record as 93.5%. In addition, in data set [5], the PAMPA is 4.53 10^−6 cm^2/sec. Besides, the “MR (Membrane Retention)” value in data set [5] is 49.6%.
